The source of these data is patent publication US10544112B2, “Identification of ebsulfur analogues with broad-spectrum antifungal activity” (priority 2017, dated 2020).

≈ marks a conversion by molar mass, not a printed value. Marks after values point to notes of the source that are not given here.

Assay [1] relates to C. albicans ATCC MYA-1003(R) (strain G). The note with it: azoles, previously reported (Shrestha 2015); cited from earlier work.
In assay [2] the test system is C. albicans ATCC 64124 (strain B). The settings on record: azoles, previously reported (Shrestha 2015); cited from earlier work.
Assay [3] relates to Aspergillus nidulans ATCC 38163 (strain L). The note with it: azoles, previously reported (Shrestha 2015); cited from earlier work.
The test system of assay [4] is Candida krusei ATCC 6258 (strain I). Nature of the assay: Antifungal MIC determination (CLSI M27-A3, 96-well). The format is cell-based. The settings on record: Pichia kudriavzevii, ATCC6258; strain I; azoles; read-out: MIC-2. The procedure, abridged:
(§1)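 A modified CLSI M27-A3 protocol is used, with final compound levels from 12.5 to 0.02 μg/mL in two-fold steps. Cells are incubated at 5×10^3 CFU/mL in buffered RPMI 1640 at 35° C for 48 h.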

In assay [5] the test system is Candida glabrata ATCC 2001 (strain H). Described as above. The format is cell-based. The settings on record: Nakaseomyces glabratus, ATCC2001; strain H; azoles; read-out: MIC-2. The gist of the method: as §1
The test system of assay [6] is Candida parapsilosis ATCC 22019 (strain J). The assay is described as above. The format is cell-based. The settings on record: Lodderomyces parapsilosis, ATCC22019; strain J; azoles; read-out: MIC-2. The gist of the method:
as §1

For assay [7], the system named is C. albicans ATCC 90819(R) (strain D). The note with it: azoles, previously reported (Shrestha 2015); cited from earlier work.
Assay [8] concerns Aspergillus flavus ATCC MYA-3631 (strain K). Nature of the assay: Antifungal MIC determination, filamentous fungi spores. The format is cell-based. The note with it: Aspergillus flavus, all compounds, read-out: MIC-0. The gist of the method: (§2)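 Broth microdilution per CLSI M27-A3 (modified) in RPMI 1640 buffered to pH 7.0 with 0.165 M MOPS; yeast inocula grown in PDB, Aspergillus spores from PDA cultures at 25° C. Final drug 12.5-0.02 μg/mL, inoculum 5×10^3 CFU/mL; incubation 48 h at 35° C.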

Assay [9] relates to Aspergillus terreus ATCC MYA-3633 (strain M). Described as above. The note with it: Aspergillus terreus; strain M; all compounds; spores; read-out: MIC-0. The class given is cell-based. The gist of the method:
as §2

For assay [10], the system named is C. albicans ATCC MYA-2310(S) (strain E). The note with it: azoles, previously reported (Shrestha 2015); cited from earlier work.
For assay [11], the system named is C. albicans ATCC MYA-1237(R) (strain F). The note with it: azoles, previously reported (Shrestha 2015); cited from earlier work.
Assay [12] deals with Candida albicans ATCC 10231 (strain A). The settings on record: azoles, previously reported (Shrestha 2015); cited from earlier work.
In assay [13] the test system is C. albicans ATCC MYA-2876(S) (strain C). The settings on record: azoles, previously reported (Shrestha 2015); cited from earlier work.

Broadly, the MIC is the lowest concentration that inhibits growth of the organism.

Consider `CC[C@@H]([C@H](C)O)n1ncn(-c2ccc(N3CCN(c4ccc(OC[C@@H]5CO[C@@](Cn6cncn6)(c6ccc(F)cc6F)C5)cc4)CC3)cc2)c1=O` [POS, posaconazole], for which the MIC-2 in [1] is recorded as 15.6^a μg/mL; in assay [2], >62.5^a μg/mL; in assay [7], 31.2^a μg/mL; in [10], 31.2^a μg/mL; in assay [11], 15.6^a μg/mL; in assay [12], 0.5^a μg/mL. In addition, the MIC-2 in assay [13] was 7.8a μg/mL. In addition, the MIC-0 in assay [3] was 0.195^a μg/mL. The minimum inhibitory concentration (MIC) was 0.06 µg/mL (≈ 0.0856 µM) in [4]; 0.12 µg/mL (≈ 0.171 µM) in [5]; below 0.03 µg/mL in [6]; 0.24 µg/mL (≈ 0.342 µM) in assay [8]; 0.48 µg/mL (≈ 0.685 µM) in [9].
